The experiment deals with L1210 leukemia ip in BDF1 mice, survival T/C. In words: NCI In Vivo Anticancer Drug Screen. Data for tumor model L1210 Leukemia (intraperitoneal) in B6D2F1 (BDF1) mice. Conditions: higher = longer survival. The method, boiled down:
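Read-out is survival time, reported as the treated-group measurement over the vehicle-control measurement.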

Here are results for three molecules from PubChem BioAssay AID248 (DTP/NCI, 2004).

SMILES strings stand for the structures. Values joined by “and” are separate entries in the source; they are usually repeats but may differ in a detail not shown here. Equal entries are not always repeated. Inconclusive results and toxic doses are left out.

For the molecule `COC(=O)Nc1nc2ccc(C(=O)c3cccs3)cc2[nH]1`, the T/C (endpoint: mean survival time, dose: 10.0 mg/kg/injection, schedule: Q01DX009 (ip), vehicle: saline with Tween-80) is 102 % of control; the T/C (endpoint: mean survival time, dose: 10.0 mg/kg/injection, schedule: Q04DX003 (ip), vehicle: Klucel (hydroxypropylcellulose) (HPC)) was 98 % of control; the T/C (endpoint: mean survival time, dose: 20.0 mg/kg/injection, schedule: Q01DX009 (ip), vehicle: saline with Tween-80) is 118 % of control; the T/C (endpoint: mean survival time, dose: 20.0 mg/kg/injection, schedule: Q04DX003 (ip), vehicle: Klucel (hydroxypropylcellulose) (HPC)) is 101 % of control; the T/C (endpoint: mean survival time, dose: 40.0 mg/kg/injection, schedule: Q04DX003 (ip), vehicle: Klucel (hydroxypropylcellulose) (HPC)) is 107 % of control; the T/C (endpoint: mean survival time, dose: 50.0 mg/kg/injection, schedule: Q04DX003 (ip), vehicle: Klucel (hydroxypropylcellulose) (HPC)) was 108 % of control and 111 % of control. In addition, the T/C reads like this: (endpoint: mean survival time, dose: 50.0 mg/kg/injection, schedule: Q04DX003 (ip), vehicle: saline with Tween-80) 111 % of control; (endpoint: mean survival time, dose: 70.0 mg/kg/injection, schedule: Q04DX003 (ip), vehicle: other) 157 % of control; (endpoint: mean survival time, dose: 75.0 mg/kg/injection, schedule: Q04DX003 (ip), vehicle: Klucel (hydroxypropylcellulose) (HPC)) 111 % of control and 121 % of control; (endpoint: mean survival time, dose: 75.0 mg/kg/injection, schedule: Q04DX003 (ip), vehicle: other) 117 % of control and 183 % of control and 210 % of control; (endpoint: mean survival time, dose: 80.0 mg/kg/injection, schedule: Q04DX003 (ip), vehicle: Klucel (hydroxypropylcellulose) (HPC)) 94 % of control; (endpoint: mean survival time, dose: 80.0 mg/kg/injection, schedule: Q04DX003 (ip), vehicle: other) 153 % of control. Moreover, the T/C runs as follows: (endpoint: mean survival time, dose: 100.0 mg/kg/injection, schedule: Q01DX009 (oral), vehicle: saline with Tween-80) 94 % of control; (endpoint: mean survival time, dose: 100.0 mg/kg/injection, schedule: Q04DX003 (ip), vehicle: Klucel (hydroxypropylcellulose) (HPC)) 115 % of control; (endpoint: mean survival time, dose: 100.0 mg/kg/injection, schedule: Q04DX003 (ip), vehicle: other) 114 % of control and 115 % of control and 89 % of control; (endpoint: mean survival time, dose: 100.0 mg/kg/injection, schedule: Q04DX003 (ip), vehicle: saline with Tween-80) 155 % of control and 170 % of control; (endpoint: mean survival time, dose: 150.0 mg/kg/injection, schedule: Q04DX003 (ip), vehicle: other) 104 % of control; (endpoint: mean survival time, dose: 160.0 mg/kg/injection, schedule: Q04DX003 (ip), vehicle: Klucel (hydroxypropylcellulose) (HPC)) 113 % of control. For the same molecule, the T/C reads like this: (endpoint: mean survival time, dose: 200.0 mg/kg/injection, schedule: Q01DX009 (oral), vehicle: saline with Tween-80) 96 % of control; (endpoint: mean survival time, dose: 200.0 mg/kg/injection, schedule: Q04DX003 (oral), vehicle: saline with Tween-80) 104 % of control; (endpoint: mean survival time, dose: 400.0 mg/kg/injection, schedule: Q01DX009 (oral), vehicle: saline with Tween-80) 100 % of control; (endpoint: mean survival time, dose: 400.0 mg/kg/injection, schedule: Q04DX003 (oral), vehicle: saline with Tween-80) 97 % of control; (endpoint: mean survival time, dose: 600.0 mg/kg/injection, schedule: Q04DX003 (oral), vehicle: saline with Tween-80) 104 % of control; (endpoint: mean survival time, dose: 800.0 mg/kg/injection, schedule: Q04DX003 (oral), vehicle: saline with Tween-80) 89 % of control. Besides, the T/C (endpoint: mean survival time, dose: 1600.0 mg/kg/injection, schedule: Q04DX003 (oral), vehicle: saline with Tween-80) was 104 % of control; the T/C (endpoint: median survival time, dose: 5.0 mg/kg/injection, schedule: Q01DX009 (ip), vehicle: other) is 101 % of control; the T/C (endpoint: median survival time, dose: 7.5 mg/kg/injection, schedule: Q03HX016 (ip), vehicle: other) was 158 % of control; the T/C (endpoint: median survival time, dose: 7.5 mg/kg/injection, schedule: Q03HX024 (ip), vehicle: other) is 164 % of control; the T/C (endpoint: median survival time, dose: 10.0 mg/kg/injection, schedule: Q01DX009 (ip), vehicle: other) was 117 % of control and 120 % of control; the T/C (endpoint: median survival time, dose: 10.0 mg/kg/injection, schedule: Q03HX016 (ip), vehicle: other) was 158 % of control. Further, the T/C is 177 % of control (endpoint: median survival time, dose: 15.0 mg/kg/injection, schedule: Q03HX008 (ip), vehicle: other); 88 % of control (endpoint: median survival time, dose: 15.0 mg/kg/injection, schedule: Q03HX024 (ip), vehicle: other); 151 % of control (endpoint: median survival time, dose: 20.0 mg/kg/injection, schedule: Q01DX005 (ip), vehicle: other); 121 % of control (endpoint: median survival time, dose: 20.0 mg/kg/injection, schedule: Q01DX009 (ip), vehicle: other); 119 % of control (endpoint: median survival time, dose: 20.0 mg/kg/injection, schedule: Q08HX009 (ip), vehicle: other); 153 % of control (endpoint: median survival time, dose: 30.0 mg/kg/injection, schedule: Q01DX005 (ip), vehicle: other). The T/C reads like this: (endpoint: median survival time, dose: 30.0 mg/kg/injection, schedule: Q01DX009 (ip), vehicle: other) 157 % of control; (endpoint: median survival time, dose: 35.0 mg/kg/injection, schedule: Q04DX003 (ip), vehicle: Klucel (hydroxypropylcellulose) (HPC)) 119 % of control; (endpoint: median survival time, dose: 35.0 mg/kg/injection, schedule: Q04DX003 (ip), vehicle: other) 123 % of control; (endpoint: median survival time, dose: 40.0 mg/kg/injection, schedule: Q04DX003 (ip), vehicle: other) 104 % of control; (endpoint: median survival time, dose: 50.0 mg/kg/injection, schedule: Q01DX005 (ip), vehicle: other) 86 % of control; (endpoint: median survival time, dose: 50.0 mg/kg/injection, schedule: Q01DX009 (ip), vehicle: other) 103 % of control. Besides, the T/C (endpoint: median survival time, dose: 50.0 mg/kg/injection, schedule: Q04DX003 (ip), vehicle: Klucel (hydroxypropylcellulose) (HPC)) was 119 % of control; the T/C (endpoint: median survival time, dose: 70.0 mg/kg/injection, schedule: Q04DX003 (ip), vehicle: Klucel (hydroxypropylcellulose) (HPC)) is 119 % of control; the T/C (endpoint: median survival time, dose: 75.0 mg/kg/injection, schedule: Q04DX003 (oral), vehicle: other) was 101 % of control; the T/C (endpoint: median survival time, dose: 80.0 mg/kg/injection, schedule: Q01DX001 (ip), vehicle: other) was 157 % of control; the T/C (endpoint: median survival time, dose: 80.0 mg/kg/injection, schedule: Q08DX002 (ip), vehicle: other) was 182 % of control; the T/C (endpoint: median survival time, dose: 90.0 mg/kg/injection, schedule: Q04DX003 (ip), vehicle: other) is 167 % of control. Also, the T/C is, setting by setting: (endpoint: median survival time, dose: 100.0 mg/kg/injection, schedule: Q01DX001 (ip), vehicle: other) 151 % of control; (endpoint: median survival time, dose: 100.0 mg/kg/injection, schedule: Q01DX009 (oral), vehicle: other) 102 % of control; (endpoint: median survival time, dose: 100.0 mg/kg/injection, schedule: Q04DX003 (iv), vehicle: other) 101 % of control; (endpoint: median survival time, dose: 130.0 mg/kg/injection, schedule: Q01DX001 (ip), vehicle: other) 155 % of control; (endpoint: median survival time, dose: 140.0 mg/kg/injection, schedule: Q08DX002 (ip), vehicle: other) 112 % of control; (endpoint: median survival time, dose: 150.0 mg/kg/injection, schedule: Q04DX003 (oral), vehicle: other) 119 % of control. The T/C is 153 % of control (endpoint: median survival time, dose: 160.0 mg/kg/injection, schedule: Q08DX002 (ip), vehicle: other); 103 % of control (endpoint: median survival time, dose: 200.0 mg/kg/injection, schedule: Q01DX009 (oral), vehicle: other); 109 % of control (endpoint: median survival time, dose: 300.0 mg/kg/injection, schedule: Q01DX009 (oral), vehicle: other); 98 % of control (endpoint: median survival time, dose: 300.0 mg/kg/injection, schedule: Q04DX003 (oral), vehicle: other); 108 % of control (endpoint: median survival time, dose: 400.0 mg/kg/injection, schedule: Q01DX009 (oral), vehicle: other); 102 % of control (endpoint: median survival time, dose: 400.0 mg/kg/injection, schedule: Q04DX003 (oral), vehicle: other). Also, the T/C is, setting by setting: (endpoint: median survival time, dose: 500.0 mg/kg/injection, schedule: Q04DX003 (oral), vehicle: other) 97 % of control; (endpoint: median survival time, dose: 600.0 mg/kg/injection, schedule: Q04DX003 (oral), vehicle: other) 104 % of control.

In the case of `Cn1c(=O)c2[nH]c(CS(=O)(=O)Cc3nc4c([nH]3)c(=O)n(C)c(=O)n4C)nc2n(C)c1=O`, the T/C was 90 % of control (endpoint: mean survival time, dose: 50.0 mg/kg/injection, schedule: Q01DX001 (ip), vehicle: other); 101 % of control (endpoint: mean survival time, dose: 100.0 mg/kg/injection, schedule: Q01DX001 (ip), vehicle: other); 95 % of control (endpoint: mean survival time, dose: 200.0 mg/kg/injection, schedule: Q01DX001 (ip), vehicle: other); 92 % of control (endpoint: mean survival time, dose: 400.0 mg/kg/injection, schedule: Q01DX001 (ip), vehicle: other).

Regarding `O=C1c2cc(F)ccc2-c2cc(Br)c([N+](=O)[O-])cc21`, the T/C (endpoint: mean survival time, dose: 100.0 mg/kg/injection, schedule: Q01DX001 (ip), vehicle: carboxymethylcellulose (CMC)) is 97 % of control; the T/C (endpoint: mean survival time, dose: 200.0 mg/kg/injection, schedule: Q01DX001 (ip), vehicle: carboxymethylcellulose (CMC)) was 103 % of control; the T/C (endpoint: mean survival time, dose: 400.0 mg/kg/injection, schedule: Q01DX001 (ip), vehicle: carboxymethylcellulose (CMC)) is 95 % of control.
